This note sets out measurements from patent US10766869B2, “Triazoles for the treatment of demyelinating dieases” (Vertex Pharmaceuticals Incorporated, priority 2015, dated 2020).

The test has as its system primary rat mixed cortical cells. Briefly: In vitro myelination assay (MBP positive myelin strands, fold myelin pixels above background). Type of test: cell-based. Conditions: Rattus norvegicus, read-out: Fold myelin pixels above background relative to baseline of no added compound; for fold induction at 1 µM: 1.0 μM compound; for fold induction at 10 µM: 10.0 μM compound. In a few lines:
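Fourteen-day treatment of primary P1 rat mixed cortical cultures, re-dosed at days 6 and 10, at 1.0 μM and 10.0 μM. MBP immunofluorescence was imaged at 10× and myelin strands quantified by software, normalised to untreated wells as fold above background.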

In the case of `CCOCCN1CCN(c2cc(C)cc(Nc3ncn(-c4cc(F)cc(F)c4)n3)c2)CC1` [Compound 973, 1-(3,5-difluorophenyl)-N-[3-[4-(2-ethoxyethyl)piperazin-1-yl]-5-methyl-phenyl]-1,2,4-triazol-3-amine], the fold induction at 1 µM is 10 to 100 and the fold induction at 10 µM is at most 1.
In the case of `CCC1COC(C)CN1CCNc1cc(C)cc(Nc2ncn(-c3cc(F)cc(F)c3)n2)c1` (stereo not shown) [Compound 974, N3-[1-(3,5-difluorophenyl)-1,2,4-triazol-3-yl]-N1-[2-(5-ethyl-2-methyl-morpholin-4-yl)ethyl]-5-methyl-benzene-1,3-diamine], the fold induction at 1 µM is 10 to 100 and the fold induction at 10 µM was at most 1.
Regarding `Cc1cc(Nc2ncn(-c3cc(F)cc(F)c3)n2)cc(N2CC(N3CCN(C)CC3)C2)c1` [Compound 975, 1-(3,5-difluorophenyl)-N-[3-methyl-5-[3-(4-methylpiperazin-1-yl)azetidin-1-yl]phenyl]-1,2,4-triazol-3-amine], the fold induction at 1 µM fell in the range of 1 to 10 and the fold induction at 10 µM is at most 1.
For the compound `CCOC1CCN(c2cc(C)cc(Nc3ncn(-c4cc(F)cc(F)c4)n3)c2)CC1` [Compound 976, 1-(3,5-difluorophenyl)-N-[3-(4-ethoxy-1-piperidyl)-5-methyl-phenyl]-1,2,4-triazol-3-amine], the fold induction at 1 µM lay in the range of 1 to 10 and the fold induction at 10 µM is 10 to 100.
In the same order, the values of `Cc1cc(Nc2ncn(-c3ccc(F)c(F)c3)n2)cc(N2CC3(C2)CN(C(C)C)C3)c1` [Compound 977, 1-(3,4-difluorophenyl)-N-[3-(2-isopropyl-2,6-diazaspiro[3.3]heptan-6-yl)-5-methyl-phenyl]-1,2,4-triazol-3-amine] are 1 to 10 and at most 1.
On the same counts, the results for `Cc1cc(Nc2ncn(-c3ccc(F)c(F)c3)n2)c(F)c(OC2CCOC2)c1` (stereo not shown) [Compound 978, 1-(3,4-difluorophenyl)-N-(2-fluoro-5-methyl-3-tetrahydrofuran-3-yloxy-phenyl)-1,2,4-triazol-3-amine] are 10 to 100 and 1 to 10.
In the same order, the values of `[2H]C1([2H])N(c2cc(C)cc(Nc3ncn(-c4cc(F)cc(F)c4)n3)c2)C([2H])([2H])C([2H])([2H])N(C2COC2)C1([2H])[2H]` [Compound 979, 1-(3,5-difluorophenyl)-N-[3-methyl-5-[2,2,3,3,5,5,6,6-octadeuterio-4-(oxetan-3-yl)piperazin-1-yl]phenyl]-1,2,4-triazol-3-amine] are 100 to 1000 and at most 1.
Regarding `Cc1cc(Nc2ncn(-c3cc(F)cc(F)c3)n2)nc(OCC2CC2)c1` [Compound 980, 6-(cyclopropylmethoxy)-N-[1-(3,5-difluorophenyl)-1,2,4-triazol-3-yl]-4-methyl-pyridin-2-amine], the fold induction at 1 µM lay in the range of 1 to 10 and the fold induction at 10 µM fell in the range of 1 to 10.
As to `Cc1cc(Nc2ncn(-c3cc(F)cc(F)c3)n2)cc(N2CCCC3COCC32)c1` (stereo not shown) [Compound 981, N-[3-(3,4,4a,5,7,7a-hexahydro-2H-furo[3,4-b]pyridin-1-yl)-5-methyl-phenyl]-1-(3,5-difluorophenyl)-1,2,4-triazol-3-amine], the fold induction at 1 µM lay in the range of 1 to 10 and the fold induction at 10 µM is 10 to 100.
Turning to `[2H]C1([2H])OC([2H])([2H])C([2H])([2H])N(c2cc(C)cc(Nc3ncn(-c4cc(F)cc(F)c4)n3)c2)C1([2H])[2H]` [Compound 982, 1-(3,5-difluorophenyl)-N-[3-methyl-5-(2,2,3,3,5,5,6,6-octadeuteriomorpholin-4-yl)phenyl]-1,2,4-triazol-3-amine], the fold induction at 1 µM lay within 10 to 100 and the fold induction at 10 µM was at most 1.
In the same order, the values of `Cc1cc(Nc2ncn(-c3cc(F)cc(F)c3)n2)cc(N2CCC(CN3CCOCC3)C2)c1` (stereo not shown) [Compound 983, 1-(3,5-difluorophenyl)-N-[3-methyl-5-[3-(morpholinomethyl)pyrrolidin-1-yl]phenyl]-1,2,4-triazol-3-amine] are 1 to 10 and 1 to 10.
